Test results reported in ChEMBL document CHEMBL1134823, “Human beta3 adrenergic receptor agonists containing cyanoguanidine and nitroethylenediamine moieties” (Bioorg Med Chem Lett, 2001).

Columns and labels:
[1] = molecular target: T1, Beta-2 adrenergic receptor (Homo sapiens, UniProt P07550); experiment: Binding affinity to the human beta-2 adrenergic receptor assayed using [125I]iodocyanopindolol as radioligand in CHO cells; format: cell-based
Target sequence in this assay (P07550 whole entry): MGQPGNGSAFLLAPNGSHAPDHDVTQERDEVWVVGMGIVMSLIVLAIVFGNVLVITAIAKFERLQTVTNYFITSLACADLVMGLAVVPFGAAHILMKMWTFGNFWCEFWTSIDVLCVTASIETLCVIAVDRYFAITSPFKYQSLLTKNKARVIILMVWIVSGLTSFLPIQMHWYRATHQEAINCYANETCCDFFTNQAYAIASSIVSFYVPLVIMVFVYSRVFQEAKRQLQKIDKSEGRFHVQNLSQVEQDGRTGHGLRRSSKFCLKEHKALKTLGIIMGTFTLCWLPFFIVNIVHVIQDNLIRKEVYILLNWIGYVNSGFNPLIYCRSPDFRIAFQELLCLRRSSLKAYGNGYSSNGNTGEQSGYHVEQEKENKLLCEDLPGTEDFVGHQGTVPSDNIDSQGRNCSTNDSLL

[2] = molecular target: T2, Beta-3 adrenergic receptor (Homo sapiens, UniProt P13945); experiment: In vitro efficacy at human beta-3 adrenergic receptor.
Target sequence in this assay (P13945 whole entry): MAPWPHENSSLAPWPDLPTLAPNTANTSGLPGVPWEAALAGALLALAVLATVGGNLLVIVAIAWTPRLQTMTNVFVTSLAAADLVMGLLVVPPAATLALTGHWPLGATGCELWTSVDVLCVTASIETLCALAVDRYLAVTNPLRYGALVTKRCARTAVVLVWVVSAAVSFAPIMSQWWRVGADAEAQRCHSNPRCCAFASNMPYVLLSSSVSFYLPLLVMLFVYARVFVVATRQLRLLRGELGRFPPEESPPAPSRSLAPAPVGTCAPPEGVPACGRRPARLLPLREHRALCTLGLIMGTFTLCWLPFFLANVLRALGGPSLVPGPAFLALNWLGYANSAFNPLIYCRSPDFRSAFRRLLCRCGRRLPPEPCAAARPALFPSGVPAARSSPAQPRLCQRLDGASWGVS

[3] = molecular target: T2, Beta-3 adrenergic receptor; experiment: In vitro maximum activation of adenylyl cyclase compared to isoproterenol.; format: functional
Target sequence in this assay (P13945 whole entry, looked up): as the sequence (P13945 whole entry) above

[4] = molecular target: T3, Beta-1 adrenergic receptor (Homo sapiens, UniProt P08588); experiment: Binding affinity for human Beta-1 adrenergic receptor using [125I]iodocyanopindolol as radioligand in CHO cells; format: cell-based
Target sequence in this assay (P08588 whole entry): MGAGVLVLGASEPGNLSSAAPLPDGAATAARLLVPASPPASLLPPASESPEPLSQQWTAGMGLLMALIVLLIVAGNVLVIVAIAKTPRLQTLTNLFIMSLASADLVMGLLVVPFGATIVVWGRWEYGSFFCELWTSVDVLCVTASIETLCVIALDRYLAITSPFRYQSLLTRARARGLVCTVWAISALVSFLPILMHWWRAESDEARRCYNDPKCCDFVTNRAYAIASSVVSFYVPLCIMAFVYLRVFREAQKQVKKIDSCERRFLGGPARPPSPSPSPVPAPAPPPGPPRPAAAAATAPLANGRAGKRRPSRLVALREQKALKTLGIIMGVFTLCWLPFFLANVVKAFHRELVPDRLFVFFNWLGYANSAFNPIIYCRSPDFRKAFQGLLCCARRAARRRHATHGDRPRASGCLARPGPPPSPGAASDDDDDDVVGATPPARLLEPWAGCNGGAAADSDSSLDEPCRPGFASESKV

[5] = molecular target: T3, Beta-1 adrenergic receptor; experiment: (§1) Percent of maximal stimulation was determined as adenylate cyclase activation using isoproterenol as standard at a concentration of 10000 nM; format: functional
Target sequence in this assay (P08588 whole entry, looked up): as the sequence (P08588 whole entry) above

[6] = molecular target: T1, Beta-2 adrenergic receptor; experiment: as §1; format: functional
Target sequence in this assay (P07550 whole entry, looked up): as the sequence (P07550 whole entry) above

[7] = molecular target: T2, Beta-3 adrenergic receptor; experiment: Percent of maximal stimulation was determined as adenylate cyclase activation using isoproterenol as standard at a concentration of 1000 nM; format: functional
Target sequence in this assay (P13945 whole entry, looked up): as the sequence (P13945 whole entry) above

[8] = molecular target: T3, Beta-1 adrenergic receptor; experiment: Binding affinity towards human Beta-1 adrenergic receptor
Target sequence in this assay (P08588 whole entry): as the sequence (P08588 whole entry) above

[9] = molecular target: T3, Beta-1 adrenergic receptor; experiment: Percent of maximal stimulation was determined as adenylate cyclase activation using isoproterenol as standard; format: functional
Target sequence in this assay (P08588 whole entry, looked up): as the sequence (P08588 whole entry) above

[10] = molecular target: T1, Beta-2 adrenergic receptor; experiment: Percent of maximal stimulation was determined as adenylate cyclase activation using isoproterenol as standard at a concentration of 10000 nM
Target sequence in this assay (P07550 whole entry, looked up): as the sequence (P07550 whole entry) above

N#CN/C(=N\c1cccc2c1CCN2c1nc(-c2ccc(OC(F)(F)F)cc2)cs1)Nc1ccc(CCNC[C@H](O)c2cccnc2)cc1
IC50 [1]: > 10000 nM | EC50 [2]: 57 nM | Activation [3]: 72% | IC50 [4]: 8400 nM | Activation [5]: 6% | Activation [6]: 20%

N#CN/C(=N\c1ccc2c(c1)CCN2c1nc(-c2ccc(OC(F)(F)F)cc2)cs1)Nc1ccc2cc(CCNC[C@H](O)c3cccnc3)ccc2c1
Activation [3]: 62% | Activation [5]: 2% | Activation [6]: 11%

N#CN/C(=N\c1ccc(I)cc1)Nc1ccc(CCNC[C@H](O)c2cccnc2)cc1
IC50 [1]: 170 nM | EC50 [2]: 100 nM | Activation [3]: 38% | IC50 [4]: 730 nM

CCCCCCCCc1csc(N2CCc3cc(NC(=NC#N)Nc4ccc(CCNC[C@H](O)c5cccnc5)cc4)ccc32)n1
IC50 [1]: 50 nM | EC50 [2]: 11 nM | IC50 [4]: 16 nM

N#CN/C(=N\c1cccc(F)c1)Nc1ccc(CCNC[C@H](O)c2cccnc2)cc1
Activation [3]: 69%

CCCCCCCCc1csc(N2CCc3ccc(N/C(=N/c4ccc(CCNC[C@H](O)c5cccnc5)cc4)NC#N)cc32)n1
IC50 [1]: 66 nM | EC50 [2]: 59 nM | Activation [3]: 38% | IC50 [4]: 74 nM

N#CN=C(Nc1ccc(CCNC[C@H](O)c2cccnc2)cc1)Nc1ccc2ccccc2c1
IC50 [1]: 50 nM | EC50 [2]: 130 nM | IC50 [4]: 740 nM

N#CN=C(Nc1ccc2c(c1)CCN2c1nc(-c2ccc(OC(F)(F)F)cc2)cs1)Nc1ccc2cc(CCNC[C@H](O)c3cccnc3)ccc2c1
IC50 [1]: 7100 nM | EC50 [2]: 19 nM | IC50 [4]: 2300 nM

N#CN/C(=N\c1ccc2c(c1)N(c1nc(-c3ccc(OC(F)(F)F)cc3)cs1)CC2)Nc1ccc(CCNC[C@H](O)c2cccnc2)cc1
IC50 [1]: 710 nM | Activation [7]: 11% | IC50 [4]: 620 nM | Activation [5]: 27% | Activation [6]: 20%

N#CN=C(Nc1ccc(CCNC[C@H](O)c2cccnc2)cc1)Nc1cccc(I)c1
IC50 [1]: 67 nM | EC50 [2]: 59 nM | IC50 [4]: 230 nM

N#CN=C(Nc1ccc(CCNC[C@H](O)c2cccnc2)cc1)Nc1ccc2c(c1)CCN2c1nc(-c2ccc(OC(F)(F)F)cc2)cs1
IC50 [1]: 180 nM | EC50 [8]: 41 nM | EC50 [2]: 13 nM | IC50 [4]: 65 nM

N#CN/C(=N\c1cc(Cl)cc(Cl)c1)Nc1ccc(CCNC[C@H](O)c2cccnc2)cc1
IC50 [1]: 140 nM | EC50 [2]: 89 nM | Activation [3]: 72% | IC50 [4]: 290 nM

O=[N+]([O-])/C=C(\Nc1ccc(CCNC[C@H](O)c2cccnc2)cc1)Nc1ccc2ccccc2c1
IC50 [1]: 3400 nM | EC50 [2]: 180 nM | Activation [3]: 74% | IC50 [4]: 820 nM

CCCCCCCCc1csc(N2CCc3cc(N/C(S)=N/c4ccc(CCNC[C@H](O)c5cccnc5)cc4)ccc32)n1
IC50 [1]: 260 nM | EC50 [2]: 5.3 nM | IC50 [4]: 110 nM

N#CN/C(=N\c1ccc2c(c1)CCN2c1nc(-c2ccc(OC(F)(F)F)cc2)cs1)Nc1ccc(CCNC[C@H](O)c2cccnc2)cc1
Activation [9]: 73% | Activation [3]: 82% | Activation [10]: 51%

CCCCCCCCc1csc(N2CCc3cc(S(=O)(=O)Nc4ccc(CCNC[C@H](O)c5cccnc5)cc4)ccc32)n1
IC50 [1]: 1300 nM | EC50 [2]: 0.93 nM | IC50 [4]: 2500 nM

O=[N+]([O-])/C=C(\Nc1ccc(CCNC[C@H](O)c2cccnc2)cc1)Nc1cc(Cl)cc(Cl)c1
IC50 [1]: 5600 nM | EC50 [2]: 35 nM | Activation [3]: 85% | IC50 [4]: 3800 nM

N#CN/C(=N\c1cccc2ccccc12)Nc1ccc(CCNC[C@H](O)c2cccnc2)cc1
Activation [3]: 64%

O=[N+]([O-])/C=C(\Nc1ccc(CCNC[C@H](O)c2cccnc2)cc1)Nc1cccc(F)c1
IC50 [1]: 2400 nM | EC50 [2]: 300 nM | Activation [3]: 79% | IC50 [4]: 3000 nM

NC(=O)c1cccc(N/C(=C/[N+](=O)[O-])Nc2ccc(CCNC[C@H](O)c3cccnc3)cc2)c1
IC50 [1]: 1200 nM | EC50 [2]: 10 nM | Activation [3]: 101% | IC50 [4]: 790 nM

O=[N+]([O-])/C=C(\Nc1ccc(CCNC[C@H](O)c2cccnc2)cc1)Nc1cccc2ccccc12
IC50 [1]: 370 nM | EC50 [2]: 140 nM | Activation [3]: 79% | IC50 [4]: 1800 nM

N#CN=C(Nc1ccc(CCNC[C@H](O)c2cccnc2)cc1)Nc1cccc(F)c1
IC50 [1]: 200 nM | EC50 [2]: 100 nM | IC50 [4]: 590 nM

N#CN/C(=N\c1ccc2ccccc2c1)Nc1ccc(CCNC[C@H](O)c2cccnc2)cc1
Activation [3]: 41%

O=[N+]([O-])/C=C(\Nc1ccc(CCNC[C@H](O)c2cccnc2)cc1)Nc1cccc(I)c1
IC50 [1]: 1200 nM | EC50 [2]: 22 nM | Activation [3]: 97% | IC50 [4]: 1100 nM

N#CN/C(=N\c1ccc(CCNC[C@H](O)c2cccnc2)cc1)Nc1cccc(C(N)=O)c1
IC50 [1]: 400 nM | EC50 [2]: 150 nM | Activation [3]: 76% | IC50 [4]: 980 nM

N#CN/C(=N\c1cccc(Oc2ccccc2)c1)Nc1ccc(CCNC[C@H](O)c2cccnc2)cc1
IC50 [1]: 40 nM | EC50 [2]: 26 nM | Activation [3]: 70% | IC50 [4]: 240 nM

N#CN=C(Nc1ccc(CCNC[C@H](O)c2cccnc2)cc1)Nc1cccc2ccccc12
IC50 [1]: 570 nM | EC50 [2]: 42 nM | IC50 [4]: 480 nM

N#CN/C(=N\c1cccc(I)c1)Nc1ccc(CCNC[C@H](O)c2cccnc2)cc1
Activation [3]: 51%

CCCCCCCCc1csc(N2CCc3c(N/C(=N/c4ccc(CCNC[C@H](O)c5cccnc5)cc4)NC#N)cccc32)n1
IC50 [1]: 930 nM | EC50 [2]: 13 nM | Activation [3]: 62% | IC50 [4]: 1200 nM | Activation [5]: 11% | Activation [6]: 25%

O=[N+]([O-])/C=C(\Nc1ccc(CCNC[C@H](O)c2cccnc2)cc1)Nc1cccc(Oc2ccccc2)c1
IC50 [1]: 220 nM | EC50 [2]: 120 nM | Activation [3]: 93% | IC50 [4]: 830 nM

CCCCCCCCc1csc(N2CCc3cc(N/C(=N/c4ccc(CCNC[C@H](O)c5cccnc5)cc4)NC#N)ccc32)n1
Activation [3]: 39%
